In patent US10597388B2, “Pyridazinone herbicides” (FMC CORPORATION, priority 2014, dated 2020):
Like-named read-outs stand apart in the source and are kept apart here.

Tests used:
Assay type in all cases: in vivo
corn (Zea mays) = experiment: Test A greenhouse herbicide test, pre- and postemergence; details: Zea mays, 240 h, 1000 g ai/ha, 0 to 100 scale
Summary of the method: (§1)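 Seeds sown in loam–sand blend got a preemergence directed soil spray of compound in non-phytotoxic solvent with surfactant. Postemergence treatment was given at 2–10 cm, one- to two-leaf stage. After ~10 d in greenhouse, injury was rated visually vs untreated controls, 0 (no effect) to 100 (complete control).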

[1] = test system: wheat (Triticum aestivum); experiment: as above; details: Triticum aestivum, 240 h, 1000 g ai/ha, 0 to 100 scale
Summary of the method: as §1

[2] = test system: pigweed (Amaranthus retroflexus); experiment: as above; details: Amaranthus retroflexus, 240 h, 1000 g ai/ha, 0 to 100 scale
Summary of the method: as §1

[3] = test system: momingglory (Ipomoea spp.); experiment: as above; details: 240 h, 1000 g ai/ha, 0 to 100 scale
Summary of the method: as §1

[4] = test system: foxtail, giant (giant foxtail, Setaria faberii); experiment: as above; details: Setaria faberi, 240 h, 1000 g ai/ha, 0 to 100 scale
Summary of the method: as §1

[5] = test system: crabgrass, large (large crabgrass, Digitaria sanguinalis); experiment: as above; details: 240 h, 1000 g ai/ha, 0 to 100 scale
Summary of the method: as §1

[6] = test system: velvetleaf (Abutilon theophrasti); experiment: as above; details: 240 h, 1000 g ai/ha, 0 to 100 scale
Summary of the method: as §1

[7] = test system: barnyardgrass (Echinochloa crus-galli); experiment: as above; details: Echinochloa crus-galli, 240 h, 1000 g ai/ha, 0 to 100 scale
Summary of the method: as §1

[8] = test system: ducksalad (Heteranthera limosa); experiment: Test B flooded paddy test; details: Heteranthera limosa, 360 h; 250 g ai/ha, Flood; visual rating on scale of 0 to 100 where 0 is no effect and 100 is complete control; 13 to 15 d after treatment; read-out: Plant response rating, Ducksalad
Summary of the method: (§2)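 Plants at the 2-leaf stage were flooded to 3 cm above soil, and test compounds were applied directly into the paddy water, which was held at that depth throughout. After 13 to 15 d in a greenhouse, injury was rated visually against untreated controls on a 0–100 scale (0 no effect, 100 complete control).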

rice (Oryza sativa) = experiment: Test B flooded paddy test; details: Oryza sativa, 360 h; 250 g ai/ha, Flood; visual rating on scale of 0 to 100 where 0 is no effect and 100 is complete control; 13 to 15 d after treatment; read-out: Plant response rating, Rice
Summary of the method: as §2

[9] = test system: sedge, umbrella (small-flower umbrella sedge, Cyperus difformis); experiment: Test B flooded paddy test; details: Cyperus difformis, 360 h; 250 g ai/ha, Flood; visual rating on scale of 0 to 100 where 0 is no effect and 100 is complete control; 13 to 15 d after treatment; read-out: Plant response rating, Sedge, Umbrella
Summary of the method: as §2

[10] = test system: barnyardgrass (Echinochloa crus-galli); experiment: Test B flooded paddy test; details: Echinochloa crus-galli, 360 h; 250 g ai/ha, Flood; visual rating on scale of 0 to 100 where 0 is no effect and 100 is complete control; 13 to 15 d after treatment; read-out: Plant response rating, Barnyardgrass
Summary of the method: as §2

[11] = test system: LOLMU, Italian Ryegrass (Lolium multiflorum); experiment: Test F mixtures with commercial herbicides, Post- or Pre-emergence
Protocol: (§3) This test evaluated the effect of mixtures of Compound 1 or Compound 2 with various commercial herbicides on multiple plant species. Seeds of multiple plant species selected were planted into Sandy Loam soil and treated either Post-emergence or Pre-emergence with test chemicals formulated in a non-phytotoxic solvent mixture. Plants were grown in a greenhouse using supplemental lighting to maintain a photoperiod of approximately 16 h; daytime and nighttime temperatures were approximately 24-30 and 19-21° C., respectively. Balanced fertilizer was applied through the watering system. Treated plants and controls were maintained in a greenhouse for 20 d, after which time all species were compared to controls and visually evaluated. Plant response ratings summarized in Tables F1 through F4 and are based on a scale of 0 to 100 where 0 is no effect and 100 is complete control. A dash (-) response means no test result. Application rates (i.e. “Rate”) are expressed in grams of active ingredient per hectare (g a.i./ha). In the following tables KCHSC is kochia (Kochia scoparia), LOLMU in Italian Ryegrass (Lolium multiflorum), AMBEL is common ragweed (Ambrosia elatior), ECHCG is barnyardgrass (Echinochloa crus-galli), SETVI is giant foxtail (Setaria faberii), AMARE is redroot pigweed (Amaranthus retroflexus), ALOMY is blackgrass (Alopecurus myosuroides) and GALAP is galium (Galium aparine). “Obsd.” is observed effect. “Exp.” is expected effect calculated from Colby's Equation.
(§4) Colby's Equation was used to determine the herbicidal effects expected from the mixtures. Colby's Equation (Colby, S. R. “Calculating Synergistic and Antagonistic Responses of Herbicide Combinations,” Weeds, 15(1), pp 20-22 (1967)) calculates the expected additive effect of herbicidal mixtures, and for two active ingredients is of the form: Pa+b=Pa+Pb−(PaPb/100)
(§5) wherein Pa+b is the percentage effect of the mixture expected from additive contribution of the individual components:
(§6) Pa is the observed percentage effect of the first active ingredient at the same use rate as in the mixture, and
(§7) Pb is the observed percentage effect of the second active ingredient at the same use rate as in the mixture.

[12] = test system: KCHSC, kochia (Kochia scoparia); experiment: as above
Protocol: as §3, §4, §5, §6, §7

[13] = test system: AMARE, redroot pigweed (Amaranthus retroflexus); experiment: as above
Protocol: as §3, §4, §5, §6, §7

[14] = test system: AMBEL, common ragweed (Ambrosia elatior); experiment: as above
Protocol: as §3, §4, §5, §6, §7

[15] = test system: GALAP, galium (Galium aparine); experiment: as above; details: Post-emergence, scale 0-100
Protocol: as §3, §4, §5, §6, §7

[16] = test system: ECHCG, barnyardgrass (Echinochloa crus-galli); experiment: as above
Protocol: as §3, §4, §5, §6, §7

[17] = test system: SETVI, giant foxtail (Setaria faberii); experiment: as above
Protocol: as §3, §4, §5, §6, §7

[18] = test system: ALOMY, blackgrass (Alopecurus myosuroides); experiment: as above; details: Post-emergence, scale 0-100
Protocol: as §3, §4, §5, §6, §7

[19] = Post-emergence, Rate 4 g a.i./ha, scale 0-100
[20] = Post-emergence, Rate 16 g a.i./ha, scale 0-100
[21] = Pre-emergence, Rate 4 g a.i./ha, applied alone, 20 d, scale 0 to 100
[22] = Pre-emergence, Rate 16 g a.i./ha, applied alone, 20 d, scale 0 to 100
[23] = Pre-emergence, Rate 62 g a.i./ha, scale 0-100
[24] = Table F3, Post-emergence, Rate 62 g a.i./ha, scale 0-100

## Cc1ccc2oc(C)c(-c3c(O)c(C)nn(C)c3=O)c2c1 [Compound 7, 4-(2,5-dimethyl-3-benzofuranyl)-5-hydroxy-2,6-dimethyl-3(2H)-pyridazinone]
Corn (Zea mays); post-emergence, Postemergence, 0 is no effect, 100 is complete control, read-out: Corn plant response rating
  plant injury at 1000 g/ha: 10%
Corn (Zea mays); pre-emergence, Preemergence, 0 no effect, 100 complete control
  Corn plant response rating (crop injury, 0 = no effect, 100 = complete kill) at 1000 g/ha: 30%
[1]; post-emergence, Postemergence, 0 is no effect, 100 is complete control, read-out: Wheat plant response rating
  plant injury at 1000 g/ha: 20%
[1]; pre-emergence, Preemergence, 0 no effect, 100 complete control, read-out: Plant response rating, Wheat
  plant injury at 1000 g/ha: 0%
[2]; post-emergence, Postemergence, 0 is no effect, 100 is complete control, read-out: Pigweed plant response rating
  pest or weed control at 1000 g/ha: 100%
[2]; pre-emergence, Preemergence, 0 no effect, 100 complete control, read-out: Plant response rating, Pigweed
  pest or weed control at 1000 g/ha: 100%
[3]; post-emergence, Postemergence, 0 is no effect, 100 is complete control, read-out: Morningglory plant response rating
  pest or weed control at 1000 g/ha: 100%
[3]; pre-emergence, Preemergence, 0 no effect, 100 complete control, read-out: Plant response rating, Morningglory
  pest or weed control at 1000 g/ha: 80%
[4]; post-emergence, Postemergence, 0 is no effect, 100 is complete control, read-out: Foxtail, Giant plant response rating
  pest or weed control at 1000 g/ha: 90%
[4]; pre-emergence, Preemergence, 0 no effect, 100 complete control, read-out: Plant response rating, Foxtail, Giant
  pest or weed control at 1000 g/ha: 90%
[5]; post-emergence, Postemergence, 0 is no effect, 100 is complete control, read-out: Crabgrass, Large plant response rating
  pest or weed control at 1000 g/ha: 50%
[5]; pre-emergence, Preemergence, 0 no effect, 100 complete control, read-out: Plant response rating, Crabgrass, Large
  pest or weed control at 1000 g/ha: 90%
[6]; post-emergence, Postemergence, 0 is no effect, 100 is complete control, read-out: Velvetleaf plant response rating
  pest or weed control at 1000 g/ha: 100%
[6]; pre-emergence, Preemergence, 0 no effect, 100 complete control, read-out: Plant response rating, Velvetleaf
  pest or weed control at 1000 g/ha: 80%
[7]; post-emergence, Postemergence, 0 is no effect, 100 is complete control, read-out: Barnyardgrass plant response rating
  pest or weed control at 1000 g/ha: 90%
[7]; pre-emergence, Preemergence, 0 no effect, 100 complete control, read-out: Plant response rating, Barnyardgrass
  pest or weed control at 1000 g/ha: 100%
[8]
  pest or weed control at 250 g/ha: 60%
Rice (Oryza sativa)
  plant injury at 250 g/ha: 0%
[9]
  pest or weed control at 250 g/ha: 60%
[10]
  pest or weed control at 250 g/ha: 20%

## CS(=O)(=O)c1ccc(C(=O)C2C(=O)CCCC2=O)c([N+](=O)[O-])c1 [mesotrione]
[11]; [19]
  LOLMU Obsd.: 0.0
[11]; [20]
  LOLMU Obsd.: 0.0
[11]; [21]
  LOLMU Obsd.: 0
[11]; [22]
  LOLMU Obsd.: 0
[12]; [19]
  KCHSC Obsd.: 0.0
[12]; [20]
  KCHSC Obsd.: 90.0
[12]; [21]
  KCHSC Obsd.: 0
[12]; [22]
  KCHSC Obsd.: 50
[13]; [19]
  AMARE Obsd.: 0.0
[13]; [20]
  AMARE Obsd.: 30.0
[13]; [21]
  AMARE Obsd.: 0
[13]; [22]
  AMARE Obsd.: 20
[14]; [19]
  AMBEL Obsd.: 0.0
[14]; [20]
  AMBEL Obsd.: 75.0
[14]; [21]
  AMBEL Obsd.: 0
[14]; [22]
  AMBEL Obsd.: 30
[15]; Rate 4 g a.i./ha
  GALAP Obsd.: 0.0
[15]; Rate 16 g a.i./ha
  GALAP Obsd.: 35.0
[16]; [19]
  ECHCG Obsd.: 0.0
[16]; [20]
  ECHCG Obsd.: 20.0
[16]; [21]
  ECHCG Obsd.: 0
[16]; [22]
  ECHCG Obsd.: 0
[17]; [19]
  SETVI Obsd.: 0.0
[17]; [20]
  SETVI Obsd.: 0.0
[17]; [21]
  SETVI Obsd.: 0
[17]; [22]
  SETVI Obsd.: 0
[18]; Rate 4 g a.i./ha
  ALOMY Obsd.: 0.0
[18]; Rate 16 g a.i./ha
  ALOMY Obsd.: 0.0

## CCNc1nc(Cl)nc(NC(C)C)n1 [atrazine]
[11]; [23]
  LOLMU Obsd.: 100
[11]; [24]
  LOLMU Obsd.: 15
[12]; [23]
  KCHSC Obsd.: 100
[12]; [24]
  KCHSC Obsd.: 100
[13]; [23]
  AMARE Obsd.: 85
[13]; [24]
  AMARE Obsd.: 75
[14]; [23]
  AMBEL Obsd.: 10
[14]; [24]
  AMBEL Obsd.: 10
[15]; Table F3, Rate 62 g a.i./ha
  GALAP Obsd.: 50
[16]; [23]
  ECHCG Obsd.: 0
[16]; [24]
  ECHCG Obsd.: 20
[17]; [23]
  SETVI Obsd.: 5
[17]; [24]
  SETVI Obsd.: 5
[18]; Table F3, Rate 62 g a.i./ha
  ALOMY Obsd.: 60
